Laboratory results: US20250074894A1, “NITROPHENYL-ACRYLAMIDES AND USES THEREOF” (BROWN UNIVERSITY, priority 2021, published 2025)
Values belong to the molecule of their own block, whether it stands above or below them.

Key:
[1] = tested on: GSCs from two patients with glioblastoma; experiment: In vitro extreme limiting dilution analysis (ELDA), GSC self-renewal; assay type: cell-based, human; conditions: 40 μM, 14 days, vs DMSO
Protocol: To examine whether treatment with Entacapone affects the ability of GSCs to self-renew, serial dilutions of GSCs were cultured from two patients with glioblastoma in the presence of 40 μM entacapone or DMSO (Control) for 14 days.

[2] = tested on: Patient derived glioma stem cells (GSCs); experiment: GSC invasion live imaging (Incucyte); assay type: cell-based, human; conditions: vs DMSO
Protocol: GSCs in Matrigel 3D matrix, were treated with 40 µM entacapone or DMSO (control) and live imaging was performed in regular time intervals using the Incucyte live cell imaging system. Normalized area of invasion was quantified following normalization of the invading area with the area occupied by the GSC sphere.
Patient derived glioma stem cells (GSCs) were incubated with 70 μM Compound 31 or DMSO (control) for 72 hours and GSC invasion into the surrounding extracellular matrix was quantified in real time using Incucyte Cell Imager. […] GSC invasion is one of the hallmarks of glioblastoma.

[3] = target: FTO (Homo sapiens, UniProt Q9C0B1); experiment: FTO activity assay (demethylation of m6A methylated RNA substrate); assay type: biochemical; conditions: for inhibition at 20 µM: read-out: reduction of FTO activity / FTO activity inhibition
Protocol: An FTO activity assay was performed to determine the inhibitory activity of compounds provided herein towards FTO and compare them with entacapone. This assay measures the ability of FTO to demethylate an m6A methylated RNA substrate. The assay is specific to FTO and is not affected by the function of ALKBH5, which is another RNA demethylase in eukaryotic cells.

[4] = tested on: cancer stem cell transcripts in GSCs; experiment: qPCR array for 84 cancer stem cell markers in GSCs; assay type: cell-based, human; conditions: 40 µM, 48 hours
Protocol: GSCs were treated with 40 µM entacapone for 48 hours to assess whether entacapone would affect expression of stemness-related transcripts. A qPCR array for 84 validated cancer stem cell markers was performed (Qiagen-RT-profiler PCR arrays).

[5] = tested on: Notch1; experiment: Notch1 inhibition assay (Western Blot in GSCs); assay type: cell-based, human; conditions: 40 µM, 48 hours, two GSC lines
[6] = tested on: Patient derived DIPG cells; experiment: DIPG cell invasion (Incucyte Cell Imager); assay type: cell-based, human; conditions: 10 μM, 72 hours, vs DMSO, p<0.05
Protocol: Patient derived DIPG cells were incubated with 10 μM Compound 31 or DMSO (control) for 72 hours and DIPG invasion into the surrounding extracellular matrix was quantified in real time using Incucyte Cell Imager.

[7] = tested on: Glioma stem cells; experiment: Glioma stem cell viability, Cell Titer Glo; assay type: cell-based, human; conditions: 48 hours
Protocol: Glioma stem cells were incubated with various increasing concentrations of Compound 31 and the percentage of viable cells at 48 hours was quantified using Cell Titer Glo (Promega). […] For the functional assays described below, the IC10 was used to maintain at least 90% viability.

[8] = tested on: diffuse intrinsic pontine glioma (DIPG) cells; experiment: Limiting dilution assay (LDA), DIPG cell self-renewal; assay type: cell-based, human; conditions: clonal tumor spheres over 2 weeks
Protocol: A limiting dilution assay (LDA) was used to determine the effect of FTO inhibition with Compound 31 on the self-renewal ability of diffuse intrinsic pontine glioma (DIPG) cells—a type of brain tumor found in an area of the brainstem known as the pons. With this assay DIPG cells are plated on 96-well plates in various numbers (2000 cell per well down to 1 cell per well) and the ability of cells to self-renew and form clonal tumor spheres is measured over a period of 2 weeks.

[9] = tested on: GSC-grafted mice; conditions: cited from earlier work
[10] = tested on: Hela cells; conditions: cited from earlier work

FTO, sequence (Q9C0B1 whole entry, species assumed): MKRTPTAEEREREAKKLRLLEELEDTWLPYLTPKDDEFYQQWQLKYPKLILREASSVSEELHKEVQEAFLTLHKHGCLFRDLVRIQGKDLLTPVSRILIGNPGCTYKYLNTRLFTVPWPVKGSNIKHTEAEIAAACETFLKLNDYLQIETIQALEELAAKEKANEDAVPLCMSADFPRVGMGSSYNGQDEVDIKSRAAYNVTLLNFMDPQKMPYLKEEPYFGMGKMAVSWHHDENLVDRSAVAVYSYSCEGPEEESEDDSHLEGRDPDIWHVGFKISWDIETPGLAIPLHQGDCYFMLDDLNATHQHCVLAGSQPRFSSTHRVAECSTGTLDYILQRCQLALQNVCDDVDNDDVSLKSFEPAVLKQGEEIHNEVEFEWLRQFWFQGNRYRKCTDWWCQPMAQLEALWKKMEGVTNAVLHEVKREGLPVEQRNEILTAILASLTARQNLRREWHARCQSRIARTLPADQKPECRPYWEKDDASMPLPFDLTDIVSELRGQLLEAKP

- % FTO activity ([3]; 20 μM): 83%
- inhibition at 20 µM ([3]; 20 μM): < 20%
- % FTO activity ([3]; 40 μM): 61.5%^
SMILES: CCN(CC)C(=O)/C(C#N)=C/c1cc(O)c(O)c([N+](=O)[O-])c1 [Entacapone, entacapone, reference compound]
- tumor-sphere formation frequency of GSCs [1]: significantly decreased the tumor-sphere formation frequency
- normalized GSC invasion area ([2]; 40 µM, Matrigel 3D matrix, 66 hours): inhibits invasion of GSCs
- FTO activity inhibition compared with 20 μM compound 31 ([3]; 40 μM): less FTO activity inhibition than 20 UM compound 31
- expression of cancer stem cell transcripts [4]: significant inhibition of several cancer stem cell transcripts
- Notch1 protein expression [5]: induces inhibition of Notch1 protein expression

- % FTO activity ([3]; 20 μM): 61%
- inhibition at 20 µM ([3]; 20 μM): ≥ 40%
- % FTO activity ([3]; 40 μM): 59%
SMILES: CCN(CCN1CC(OC)C1)C(=O)/C(C#N)=C/c1cc(O)c(O)c([N+](=O)[O-])c1 [Compound 1]
- FTO inhibitory activity compared to entacapone [3]: significantly higher FTO inhibitory activity compared to entacapone

Continued, molecule first:

SMILES: CCN(CCSCCCF)C(=O)/C(C#N)=C/c1cc(O)c(O)c([N+](=O)[O-])c1 [Compound 31]
- GSC invasion into surrounding extracellular matrix ([2]; 70 μM, 72 hours, p<0.05): significant inhibition of GSC invasion
- FTO inhibitory activity compared to entacapone [3]: significantly higher FTO inhibitory activity compared to entacapone
- % FTO activity ([3]; 20 μM): 54%
- inhibition at 20 µM ([3]; 20 μM): ≥ 40%
- % FTO activity ([3]; 40 μM): 48%
- DIPG invasion into surrounding extracellular matrix [6]: significant inhibition of DIPG invasion
- IC10, viable cells [7]: 70 µM
- IC50 ([7]; Homo sapiens, read-out: IC50, viable cells): 114 µM
- self-renewal ability of DIPG cells [8]: significantly inhibits the self-renewal ability of DIPG cells

SMILES: CCOC(=O)c1ccccc1Nc1c(Cl)ccc(C)c1Cl [ethyl ester of meclofenamic acid]
- lifespan [9]: substantially prolong lifespan
- tumor progression [9]: suppress tumor progression

SMILES: C=CC(=O)Nc1ccc([N+](=O)[O-])cc1 [N-(4-nitrophenyl) acrylamide]
- IC50 [10]: 1000 µM
